Two substances from patent publication US10669314B2, “Polypeptide” (Affibody AB, priority 2014, dated 2020) can be followed below.

The subject of test [1] is IL-6 triggered serum amyloid-A (SAA) protein release. In words: Serum Amyloid A (SAA) mouse model. The class given is in vivo. Conditions: 25 mg/kg s.c. 9 h before hIL-6 5 μg/kg i.p.; Balb/c mice. The protocol: The IL-6 targeting Z variant Z06814 (SEQ ID NO:1512) and a control Z variant Z04726 (SEQ ID NO:1535) binding an irrelevant target, were cloned and produced in fusion with the ABD variant PP013 (SEQ ID NO:1554) as described in Example 2. Four groups of Balb/c mice (n=8) were injected subcutaneously (s.c.) with various doses (0, 0.025, 2.5 or 25 mg/kg body weight) of Z06814-ABD 9 h prior to intraperitoneal (i.p.) administration of hIL-6 at 5 μg/kg (R&D Systems). A fifth group of mice (n=8) received 25 mg/kg of Z04726-ABD. Two additional control groups of mice received PBS (n=4) and 25 mg/kg of Z06814-ABD (n=8), respectively, but no subsequent IL-6 injection. After 20 h, the blood was taken by cardiac puncture and serum was collected.
Serum was assessed for the content of murine SAA by ELISA (Tridelta) according to the manufacturer's instructions. In brief, diluted serum samples were added to SAA-precoated plates together with anti-SAA-HRP. The plates were incubated for 1 h and then washed four times. TMB substrate was added for 20 min and the reaction was stopped with stop solution. The absorbance was measured at 450 nm using a microplate reader (Victor^3, Perkin Elmer).

Test [2] relates to IL-6 trans-signaling dependent secretion of MCP-1 in HUVECs. As to the kind of experiment: HUVEC trans-signaling assay, MCP-1 production. The class given is cell-based, human. Conditions: fusions with ABD variant PP013, in the presence of HSA. The protocol: To address the trans-signaling pathway, a second assay was used. Herein, human umbilical vein endothelial cells (HUVECs) were stimulated with hIL-6 and soluble hIL-6Rα and the readout was the production of monocyte chemoattractant protein-1 (MCP-1). HUVECs (Lonza) were grown in EGM-2 bullet kit media (Lonza) and passaged in culture no more than eight times. Cells were grown until 75% confluence before use. Cells were detached using trypsin/EDTA (Lonza), resuspended and washed once in fresh medium. Next, cells were counted and dispensed into 96 well flat bottom plates at a density of 2×10^4 cells per well. Cells were cultured overnight at 37° C. in a humidified 5% CO2 atmosphere. […] The pre-mixed solutions with the test molecules and hIL-6/hIL-6Rα were then transferred to wells containing HUVECs, which were incubated for 24 h at 37° C. in a humidified 5% CO2 atmosphere. Cell free supernatant was collected after the incubation period and human MCP-1 levels were determined by sandwich ELISA using the MCP-1 Duoset ELISA development system (R&D Systems).
Half area 96-well ELISA plates were coated with anti-MCP-1 capture antibody (R&D Systems) at a concentration of 1 μg/ml. Plates were incubated overnight at 4° C., washed twice in tap water and blocked for 1 h in PBSC. […] The absorbance was measured at 450 nm using a microplate reader (Victor^3, Perkin Elmer).

For “Z04726-ABD: control Z variant Z04726 (SEQ ID NO:1553) binding an irrelevant target, in fusion with ABD variant PP013 [reference compound]”, in test [1], the “SAA protein levels in serum” value was 500 to 600 µg/mL. For “Z03638: control Z variant binding an irrelevant target, tested in fusion with ABD variant PP013 [reference compound]”, the “inhibition of IL-6 mediated trans-signaling in HUVECs” value in test [2] was “did not”.
